Assay results as given in ChEMBL document CHEMBL1137247, “Derivatives of 7-amino-1,2,3,4-tetrahydroisoquinoline and isophthalic acids as novel fibrinogen receptor antagonists” (Bioorg Med Chem Lett, 2006).

Experiments:
Plasma = assay: Inhibition of ADP-induced platelet aggregation in human platelet-rich plasma by Born's method
[1] = target: Integrin alpha-IIb/beta-3 (Homo sapiens); assay: Displacement of FITC-Fg from integrin alphaIIbbeta3 receptor expressed in human activated platelets

Row | IC50 (Plasma) [nM] | IC50 [1] [nM] | SMILES
1 | 710 | 8 | O=C(O)CC(NC(=O)c1cc(C(=O)Nc2ccc3c(c2)CNCC3)cc([N+](=O)[O-])c1)c1ccccc1 (stereo unspecified)
2 | 2300 | 32 | O=C(O)CCNC(=O)c1cc(C(=O)Nc2ccc3c(c2)CNCC3)cc([N+](=O)[O-])c1
3 | 17 | 0.8 | COc1ccc(C(CC(=O)O)NC(=O)c2cccc(C(=O)Nc3ccc4c(c3)CNCC4)c2)cc1 (stereo unspecified)
4 | 450 | 5 | COc1ccc(C(CC(=O)O)NC(=O)c2cc(C(=O)Nc3ccc4c(c3)CNCC4)cc([N+](=O)[O-])c2)cc1 (stereo unspecified)
5 | 78 | 9 | O=C(O)CCNC(=O)c1cccc(C(=O)Nc2ccc3c(c2)CNCC3)c1
6 | 25 | 1 | O=C(O)CC(NC(=O)c1cccc(C(=O)Nc2ccc3c(c2)CNCC3)c1)c1ccccc1 (stereo unspecified)
7 | 11.6 | 0.7 | COc1ccc(C(CC(=O)O)NC(=O)c2cccc(C(=O)Nc3ccc4c(c3)CNCC4)c2)cc1OC (stereo unspecified)
8 | 340 | 3.7 | COc1ccc(C(CC(=O)O)NC(=O)c2cc(C(=O)Nc3ccc4c(c3)CNCC4)cc([N+](=O)[O-])c2)cc1OC (stereo unspecified)
